Converted amounts (≈) assume the structure as drawn.
Assays:
[1] = system: Mycobacterium tuberculosis; experiment: Antimycobacterial activity against Mycobacterium tuberculosis; assay type: functional
[2] = molecular target: T1, Long-chain-fatty-acid--AMP ligase FadD32 (Mycobacterium tuberculosis (strain ATCC 25618 / H37Rv)) (UniProt O53580); experiment: Inhibition of Mycobacterium tuberculosis H37Rv FadD32 assessed as reduction in bacterial viability after 6 days by resazurin dye based fluorescence assay
T1 sequence (whole entry): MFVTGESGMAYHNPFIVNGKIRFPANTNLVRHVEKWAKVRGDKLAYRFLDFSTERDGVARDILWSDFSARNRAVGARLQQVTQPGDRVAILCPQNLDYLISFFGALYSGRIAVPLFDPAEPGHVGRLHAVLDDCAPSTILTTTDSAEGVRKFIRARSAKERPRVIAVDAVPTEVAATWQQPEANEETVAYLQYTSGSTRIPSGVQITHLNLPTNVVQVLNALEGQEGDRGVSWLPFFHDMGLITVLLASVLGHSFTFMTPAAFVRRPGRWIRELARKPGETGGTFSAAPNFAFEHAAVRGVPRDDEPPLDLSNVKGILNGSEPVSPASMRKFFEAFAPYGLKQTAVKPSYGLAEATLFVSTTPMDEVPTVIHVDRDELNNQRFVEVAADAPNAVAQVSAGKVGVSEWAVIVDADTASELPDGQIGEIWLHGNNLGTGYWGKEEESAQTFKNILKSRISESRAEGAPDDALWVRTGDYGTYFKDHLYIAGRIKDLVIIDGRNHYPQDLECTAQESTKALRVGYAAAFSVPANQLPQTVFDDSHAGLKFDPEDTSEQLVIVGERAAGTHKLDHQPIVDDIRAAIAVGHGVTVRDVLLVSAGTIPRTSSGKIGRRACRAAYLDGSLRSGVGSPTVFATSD

[3] = Kinetic solubility of the compound at pH 7.4 by chemiluminescence nitrogen detection method; assay type: physicochemical; conditions: buffer, read-out: Kinetic_solubility
[4] = Drug level treated with 4-(4-fluorophenyl)-5,7-dimethyl-6-(4-(morpholinomethyl)phenyl)-2H-chromen-2-one under basic condition after 18 hrs at room temperature in presence of morpholine; assay type: physicochemical
[5] = Metabolic stability in mouse liver microsomes at 1 uM after 60 mins by UPLC-MS/MS analysis; assay type: ADME, microsome; conditions: for remaining at 1 h, 1 µM: liver microsomes, read-out: Stability
[6] = Metabolic stability in human liver microsomes at 1 uM after 60 mins by UPLC-MS/MS analysis; assay type: ADME, microsome; conditions: for remaining at 1 h, 1 µM: liver microsomes, read-out: Stability
HepG2 = experiment: Cytotoxicity against human HepG2 cells after 48 hrs by CellTiter-Glo assay; assay type: cell-based; conditions: HepG2, 48 h
[7] = system: Mycobacterium tuberculosis; experiment: Antimycobacterial activity against Mycobacterium tuberculosis H37Rv infected in C57BL/6J mouse assessed as log reduction in bacterial load in lungs up to 50 mg/kg, po qd via gavage up to day 8 post infection starting from day 1 post infection measured on day 9; assay type: functional
[8] = system: Mycobacterium tuberculosis; experiment: Antimycobacterial activity against Mycobacterium tuberculosis H37Rv infected in C57BL/6J mouse assessed as reduction in bacterial load in lungs administered po qd via gavage up to day 8 post infection starting from day 1 post infection measured on day 9; assay type: functional, organism-based
[9] = system: Mycobacterium tuberculosis; experiment: Antimycobacterial activity against Mycobacterium tuberculosis H37Rv infected in C57BL/6J mouse assessed as 2 log reduction in bacterial load in lungs administered po qd via gavage up to day 8 post infection starting from day 1 post infection measured on day 9; assay type: functional
Mus musculus = experiment: Toxicity in C57BL/6J mouse infected with Mycobacterium tuberculosis H37Rv assessed as mortality up to 50 mg/kg, po qd via gavage up to day 8 post infection starting from day 1 post infection measured daily; assay type: organism-based; conditions: in vivo
[10] = Protein binding in mouse plasma a 5 uM after 5 hrs by UPLC-MS based rapid equilibrium dialysis method; assay type: ADME, cell-free
[11] = Protein binding in human plasma a 5 uM after 5 hrs by UPLC-MS based rapid equilibrium dialysis method; assay type: ADME, cell-free
[12] = Plasma clearance in mouse at 1 mg/kg, iv; assay type: ADME, organism-based

## Cc1cc2oc(=O)cc(-c3ccccc3)c2c(C)c1-c1ccc(CN2CCOCC2)cc1
[1]
  MIC90: 0.24 to 5.6 µM (≈ 0.102 to 2.38 µg/mL)

## Cc1cc2nccc(-c3ccccc3C#N)c2c(C)c1-c1ccc(CN2CCOCC2)cc1
[2]
  MIC90: 2.5 µM (≈ 1.08 µg/mL)
[3]
  solubility kinetic: 24 µM (≈ 10.4 µg/mL)

## Cc1cc2nc(C(=O)NCCF)cc(-c3ccccc3Cl)c2c(C)c1-c1ccncc1
[2]
  MIC90: 1.25 µM (≈ 0.542 µg/mL)
[3]
  solubility kinetic: 5 µM (≈ 2.17 µg/mL)

## Cc1cc2nc(C(=O)NC(C)C)cc(-c3ccccc3Cl)c2c(C)c1-c1ccncc1
[2]
  MIC90: 2.5 µM (≈ 1.07 µg/mL)
[3]
  solubility kinetic: 4 µM (≈ 1.72 µg/mL)

## CCc1ccccc1CNc1ccnc2cc(C)c(-c3ccc(CN4CCOCC4)cc3)c(C)c12
[2]
  MIC90: 2.5 µM (≈ 1.16 µg/mL)
[3]
  solubility kinetic: 59 µM (≈ 27.5 µg/mL)

## Cc1cc2[nH]c(=O)cc(-c3ccccc3)c2c(C)c1-c1ccc(CN2CCOCC2)cc1
[2]
  MIC90: > 40 µM

## Cc1cc2nc(C(=O)N3CCNCC3)cc(-c3ccccc3Cl)c2c(C)c1-c1ccncc1
[2]
  MIC90: 10 µM (≈ 4.57 µg/mL)

## Cc1cc(O)c(/C(=C\C(=O)N2CCOCC2)c2ccc(F)cc2)c(C)c1-c1ccc(CN2CCOCC2)cc1
[4]
  Drug metabolism: Metabolite_Detected

## Cc1cc2nc(C(=O)N3CCOCC3)cc(-c3ccccc3Cl)c2c(C)c1-c1ccncc1
[2]
  MIC90: 15 µM (≈ 6.87 µg/mL)
[3]
  solubility kinetic: 145 µM (≈ 66.4 µg/mL)

## Cc1cc2nccc(-c3ccc(Cl)cc3)c2c(C)c1-c1ccc(CN2CCOCC2)cc1
[2]
  MIC90: > 80 µM

## Cc1cc2nc(C(=O)N(C)C)cc(-c3ccccc3Cl)c2c(C)c1-c1ccncc1
[2]
  MIC90: 20 µM (≈ 8.32 µg/mL)
[3]
  solubility kinetic: 157 µM (≈ 65.3 µg/mL)

## COc1ccncc1-c1ccnc2cc(C)c(-c3ccc(CN4CCOCC4)cc3)c(C)c12
[2]
  MIC90: 2.5 µM (≈ 1.1 µg/mL)
[3]
  solubility kinetic: 169 µM (≈ 74.3 µg/mL)

## Cc1cc2nccc(-c3ccccc3Cl)c2c(C)c1-c1ccncc1
[2]
  MIC90: 5 µM (≈ 1.72 µg/mL)
[3]
  solubility kinetic: 21 µM (≈ 7.24 µg/mL)

## Cc1cc2nccc(-c3ccccc3C(=O)O)c2c(C)c1-c1ccc(CN2CCOCC2)cc1
[2]
  MIC90: 40 µM (≈ 18.1 µg/mL)
[3]
  solubility kinetic: 222 µM (≈ 100 µg/mL)

## Cc1cc2oc(=O)cc(-c3ccccc3)c2c(C)c1-c1ccncc1
[1]
  MIC90: 0.24 to 5.6 µM (≈ 0.0786 to 1.83 µg/mL)

## Cc1cc2nc(CO)cc(-c3ccccc3Cl)c2c(C)c1-c1ccncc1
[2]
  MIC90: 3.75 µM (≈ 1.41 µg/mL)
[3]
  solubility kinetic: 32 µM (≈ 12 µg/mL)

## Cc1cc2occ(-c3ccccc3)c2c(C)c1-c1ccc(CN2CCOCC2)cc1
[2]
  MIC90: 2.5 µM (≈ 0.994 µg/mL)

## Cc1cc2nc(C(C)(C)O)cc(-c3ccccc3Cl)c2c(C)c1-c1ccncc1
[2]
  MIC90: > 40 µM
[3]
  solubility kinetic: 38 µM (≈ 15.3 µg/mL)

## Cc1cccc(C)c1-c1ccnc2cc(C)c(-c3ccc(CN4CCOCC4)cc3)c(C)c12
[2]
  MIC90: 5 µM (≈ 2.18 µg/mL)

## Cc1cc2oc(=O)cc(-c3cccc(N)c3)c2c(C)c1-c1ccc(CN2CCOCC2)cc1
[1]
  MIC90: 0.24 to 5.6 µM (≈ 0.106 to 2.47 µg/mL)

## COc1ncccc1-c1ccnc2cc(C)c(-c3ccc(CN4CCOCC4)cc3)c(C)c12
[2]
  MIC90: 2.5 µM (≈ 1.1 µg/mL)
[3]
  solubility kinetic: 1 µM (≈ 0.44 µg/mL)

## Cc1cc2nccc(-c3cccnc3)c2c(C)c1-c1ccc(CN2CCOCC2)cc1
[2]
  MIC90: 5 µM (≈ 2.05 µg/mL)
[3]
  solubility kinetic: 209 µM (≈ 85.6 µg/mL)

## COc1cccc(-c2ccnc3cc(C)c(-c4ccc(CN5CCOCC5)cc4)c(C)c23)c1Cl
[2]
  MIC90: 10 µM (≈ 4.73 µg/mL)
[3]
  solubility kinetic: 2 µM (≈ 0.946 µg/mL)

## Cc1cc2nc(C(=O)NCCN(C)C)cc(-c3ccccc3Cl)c2c(C)c1-c1ccncc1
[2]
  MIC90: 0.3 µM (≈ 0.138 µg/mL)
[3]
  solubility kinetic: 263 µM (≈ 121 µg/mL)
[5]
  remaining at 1 h, 1 µM: 24%
[6]
  remaining at 1 h, 1 µM: 3.2%
HepG2
  IC50: 16 µM

## Cc1cc2nc(C(N)=O)cc(-c3ccccc3Cl)c2c(C)c1-c1ccncc1
[2]
  MIC90: 1.25 µM (≈ 0.485 µg/mL)
[3]
  solubility kinetic: 8 µM (≈ 3.1 µg/mL)

## Cc1cc2nccc(-c3ccccc3)c2c(C)c1-c1ccc(CN2CCOCC2)cc1
[2]
  MIC90: 0.45 µM (≈ 0.184 µg/mL)

## Cc1cc2nc(C(=O)N3CCCC3)cc(-c3ccccc3Cl)c2c(C)c1-c1ccncc1
[2]
  MIC90: 5 µM (≈ 2.21 µg/mL)
[3]
  solubility kinetic: 41 µM (≈ 18.1 µg/mL)

## Cc1cc2nccc(-c3ccnn3C)c2c(C)c1-c1ccc(CN2CCOCC2)cc1
[2]
  MIC90: 2.5 µM (≈ 1.03 µg/mL)
[3]
  solubility kinetic: 243 µM (≈ 100 µg/mL)

## Cc1cc2nccc(-c3ccccc3Cl)c2c(C)c1-c1ccc(CN2CCOCC2)cc1
[2]
  MIC90: 0.3 µM (≈ 0.133 µg/mL)

## CCOC(=O)c1cc(-c2ccccc2Cl)c2c(C)c(-c3ccncc3)c(C)cc2n1
[2]
  MIC90: 10 µM (≈ 4.17 µg/mL)
[3]
  solubility kinetic: 9 µM (≈ 3.75 µg/mL)

## Cc1cc2nc(C(=O)NCCO)cc(-c3ccccc3Cl)c2c(C)c1-c1ccncc1
[2]
  MIC90: 0.3 µM (≈ 0.13 µg/mL)
[3]
  solubility kinetic: 25 µM (≈ 10.8 µg/mL)
[5]
  remaining at 1 h, 1 µM: 26.2%
[6]
  remaining at 1 h, 1 µM: 8%
HepG2
  IC50: 100 µM

## CNC(=O)c1cc(-c2ccccc2Cl)c2c(C)c(-c3ccncc3)c(C)cc2n1
[2]
  MIC90: 0.8 µM (≈ 0.322 µg/mL)
[3]
  solubility kinetic: 15 µM (≈ 6.03 µg/mL)
[5]
  remaining at 1 h, 1 µM: 19.1%
[6]
  remaining at 1 h, 1 µM: 19.4%
HepG2
  IC50: 60 µM
[7]
  Activity: 4 deltalog10CFU
[8]
  Activity: Dose-dependent effect
[9]
  ED99: 7.8 mg/kg
Mus musculus
  Activity: Non-Toxic

## Cc1cc2nccc(-c3cncnc3)c2c(C)c1-c1ccc(CN2CCOCC2)cc1
[2]
  MIC90: 2.5 µM (≈ 1.03 µg/mL)
[3]
  solubility kinetic: > 230 µM
[10]
  PPB: 92.8%
[11]
  PPB: 95.2%
[5]; microsomes, 1 h, 1 µM
  Stability: < 5%
[6]; microsomes, 1 h, 1 µM
  Stability: 11.6%
[12]
  clearance: 3.91 L/h/kg

## Cc1cc2nc(C(=O)O)cc(-c3ccccc3Cl)c2c(C)c1-c1ccncc1
[2]
  MIC90: 80 µM (≈ 31.1 µg/mL)
[3]
  solubility kinetic: 226 µM (≈ 87.9 µg/mL)

## Cc1cc2nccc(-c3ccccc3C(N)=O)c2c(C)c1-c1ccc(CN2CCOCC2)cc1
[2]
  MIC90: 20 µM (≈ 9.03 µg/mL)

## Cc1cc2nccc(-c3cccc(Cl)c3)c2c(C)c1-c1ccc(CN2CCOCC2)cc1
[2]
  MIC90: 1.5 µM (≈ 0.664 µg/mL)
[3]
  solubility kinetic: 1 µM (≈ 0.443 µg/mL)

Reference: ChEMBL document CHEMBL4261616, “Discovery of heterocyclic replacements for the coumarin core of anti-tubercular FadD32 inhibitors” (Bioorg Med Chem Lett, 2018)
